Data as given in patent publication US12521435B2, “Photodynamic therapy composition” (CASE WESTERN RESERVE UNIVERSITY, priority 2020, dated 2026).

How the values were obtained:
PC3pip tumors [1] = assay: In vivo tumor targeting and intratumor Pc158 release (Maestro fluorescence imaging); set-up: species or system athymic nude mice; conditions: E64 intratumorally injected before AuNPs-Pc158 administration
Procedure: All animal procedures were performed according to Institutional Animal Care and Use Committee (JACUA)-approved protocols (2015-0033). Four- to five-week-old male athymic nude mice were subcutaneously implanted with PC3pip or PC3flu cells (100 μL, cells suspended in PBS/matrigel at 1×10^7 cells/mL) on the right and left flanks, respectively. When the tumors grew to a sufficient size, AuNPs-Pc158 conjugations were intravenously injected via the tail vein with a Pc158 dose of 0.1 mg/kg. The mice were preimaged before, and at 0.5 h, 1 h, 4 h, 8 h, 24 h, 48 h, 72 h, 96 h, and 120 h after NPs injection using the Maestro In vivo Imaging System (PerkinElmer) to monitor the delivery and release of Pc158. Multispectral images were unmixed into their component spectra (Pc158 autofluorescence and background). Component images were used to quantitatively determine the average Pc158 fluorescence intensity of the PC3pip and PC3flu tumors. Tumor tissues at 24 h postinjection were also collected, cut, and imaged to see the Pc158 distribution (details in the histology analysis section).

PC3pip cells = assay: In vitro PDT, CCK8 assay; assay type: cell-based; conditions: E64 added to block the cleavage
Procedure: In vitro PDT was evaluated by CCK8 assay. PC3pip and PC3flu cells were seeded in 96-well plates at 1×10^4 cells/well. […] The 96-well plate was irradiated (Appolo Horizon projector, Acco Brands) with radiant exposure at 1 J/cm^2, after which the cells were incubated overnight. After incubation, CCK8 agent (DojinDo Laboratories) was added to each well (10 μL/well) and incubated for 3 h at 37° C., and absorbance at 450 nm was measured for each well.

PC3pip tumors [2] = assay: Multiple sequential PDT of tumors around 500 mm^3; assay type: in vivo, athymic nude mice; conditions: E64 intratumorally injected after bleaching; following 48 h (Day 2 and Day 3)
Procedure: Tumor size and mouse body weight was monitored every other day for a 30 day period. […] PDT was performed at 24 h, 2 days, and 3 days post-injection. Fluorescence before and after each PDT was monitored with Maestro, and intensity was quantified. One group of mice that received AuNPs-Pc158 were intratumorally injected with cathepsin inhibitor E64 after the first PDT exposure. After PDT, tumor size and mice body weight were monitored over 24 days.

[3] = system: PSMA-positive PC3pip cells; assay: In vitro targeting and intracellular Pc158 release (confocal microscopy); assay type: cell-based; conditions: E64 added prior to coincubation with AuNPs
Procedure: Retrovirally transformed PSMA-positive PC3pip cells and transfection control PSMA-negative PC3flu cells were incubated for specific uptake and intracellular release studies. Both PC3pip and PC3flu cells were cultured in RPMI1640 medium (Invitrogen Life Technology) with 2 mmol/L L-glutamine, 10% FBS at 37° C., and 5% CO2. PC3pip and PC3flu cells were seeded in μ-Slide 8-Well Chamber Slide (ibidi) at 2000 cells/well. When the cells grew to 70% confluence, AuNPs-Pc158 conjugations were added at a Pc158 concentration of 1 μmol/L and coincubated for 1 h, 6 h, and 24 h. Then the cells were washed with PBS and stained with DAPI, LysoOrange, and MitoGreen (all from abcam) for 30 min at 37° C. and 5% CO2, after which they were washed again with PBS and replete medium added. The release of Pc158 and localization of nuclei, lysosomes, and mitochondria was observed under a Leica HyVolution SP8 confocal microscope (Leica Microsystem Inc.).

CC(C)C[C@H](NC(=O)[C@H]1O[C@@H]1C(=O)O)C(=O)NCCCCN=C(N)N [E64]
Pc158 fluorescence in PC3pip tumors (PC3pip tumors [1]): no Pc158 fluorescence was measurable | release of free Pc158 and PDT with AuNPs-Pc158 (PC3pip cells): significantly hindered | Pc158 fluorescence in the tumor after first PDT (PC3pip tumors [2]): fluorescence inhibition | process of free Pc158 generation from AuNPs-Pc158 in cells [3]: could be blocked
